System: NK1 receptor
Test: NK1 receptor test by the methods of WO 93/01165, pages 36 to 39
Assay type: binding, human
Details: 3(R) compound compared with its 3(S) epimer, Example 124
Experimental: The exemplified compounds of this invention were tested by the methods set out at pages 36 to 39 of International Patent Specification No. WO 93/01165.

(3R,5R,6S)-3-[2-(2,2,-Difluoroethoxy)-5-(difluoromethoxy)phenyl]-6-phenyl-1-oxa-7-(tert-butoxycarbonyl)aza-spiro[4,5]decane [Example 214]
potency relative to epimer: more potent
